According to patent US20230219904A1 (SYNGENTA CROP PROTECTION AG, priority 2020, published 2023):

Key:
Assay type in all cases: in vivo
Settings in all cases: evaluated after 13 days
[1] = system: Echinochloa crus-galh (ECHCG); assay: Post-emergence herbicidal glasshouse test (Table B1)
How it was run: (§1)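 In this pot assay, seedlings or sown soil receive a spray of formulated active ingredient (acetone/water 50:50, 0.5% Tween 20) at 500 g/h unless indicated. Conditions: 24/16° C day/night, 14 hours light, 65% humidity, watering twice daily. Injury is scored after 13 days, 1 (0-19%) to 5 (80-100%).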

[2] = system: Amaranthus retoflexus (AMARE); assay: as above
How it was run: as §1

[3] = system: Setaria faberi (SETFA); assay: as above
How it was run: as §1

[4] = system: Abutilon theophrasti (ABUTH); assay: as above
How it was run: as §1

[5] = system: Ipomoea hederacea (IPOHE); assay: as above
How it was run: as §1

[6] = system: Echinochloa crus-galh (ECHCG); assay: Pre-emergence herbicidal glasshouse test (Table B1)
How it was run: as §1

[7] = system: Amaranthus retoflexus (AMARE); assay: as above
How it was run: as §1

[8] = system: Setaria faberi (SETFA); assay: as above
How it was run: as §1

[9] = system: Abutilon theophrasti (ABUTH); assay: as above
How it was run: as §1

[10] = system: Ipomoea hederacea (IPOHE); assay: as above
How it was run: as §1

| Structure (SMILES) | POST Application ECHCG, percentage damage on five-point scale ([1]; applied at 500 g/h) | POST Application AMARE, percentage damage on five-point scale ([2]; applied at 500 g/h) | POST Application SETFA, percentage damage on five-point scale ([3]; applied at 500 g/h) | POST Application ABUTH, percentage damage on five-point scale ([4]; applied at 500 g/h) | POST Application IPOHE, percentage damage on five-point scale ([5]; applied at 500 g/h) | PRE Application ECHCG, percentage damage on five-point scale ([6]; applied at 500 g/h) | PRE Application AMARE, percentage damage on five-point scale ([7]; applied at 500 g/h) | PRE Application SETFA, percentage damage on five-point scale ([8]; applied at 500 g/h) | PRE Application ABUTH, percentage damage on five-point scale ([9]; applied at 500 g/h) | PRE Application IPOHE, percentage damage on five-point scale ([10]; applied) | POST Application ECHCG, percentage damage on five-point scale ([1]; applied at 125 g/ha) | POST Application AMARE, percentage damage on five-point scale ([2]; applied at 125 g/ha) | POST Application SETFA, percentage damage on five-point scale ([3]; applied at 125 g/ha) | POST Application ABUTH, percentage damage on five-point scale ([4]; applied at 125 g/ha) | POST Application IPOHE, percentage damage on five-point scale ([5]; applied at 125 g/ha) | PRE Application ECHCG, percentage damage on five-point scale ([6]; applied at 125 g/ha) | PRE Application AMARE, percentage damage on five-point scale ([7]; applied at 125 g/ha) | PRE Application SETFA, percentage damage on five-point scale ([8]; applied at 125 g/ha) | PRE Application ABUTH, percentage damage on five-point scale ([9]; applied at 125 g/ha) | PRE Application IPOHE, percentage damage on five-point scale ([10]; applied at 125 g/ha) |
| --- | --- | --- | --- | --- | --- | --- | --- | --- | --- | --- | --- | --- | --- | --- | --- | --- | --- | --- | --- | --- |
| COC(C)(C)C(=O)Nc1c(OC(F)(F)F)ccc(C(=O)Nc2nnnn2C)c1Cl [Compound 1.125] | 5 (5=80-100%) | 5 (5=80-100%) | 5 (5=80-100%) | 5 (5=80-100%) | 5 (5=80-100%) | 5 (5=80-100%) | 5 (5=80-100%) | 1 (1=0-19%) | 5 (5=80-100%) | 4 (4=60-79%) |  |  |  |  |  |  |  |  |  |  |
| CCC(=O)Nc1c(OC(F)F)ccc(C(=O)Nc2nnnn2C)c1C [Compound 1.126] |  |  |  |  |  |  |  |  |  |  | 5 (5=80-100%) | 5 (5=80-100%) | 5 (5=80-100%) | 5 (5=80-100%) | 4 (4=60-79%) | 5 (5=80-100%) | 5 (5=80-100%) | 2 (2=20-39%) | 5 (5=80-100%) | 3 (3=40-59%) |
| CCn1nnnc1NC(=O)c1ccc(OC(F)(F)F)c(NC(=O)C(C)F)c1Cl (centres unmarked) [Compound 1.127] | 5 (5=80-100%) | 5 (5=80-100%) | 5 (5=80-100%) | 5 (5=80-100%) | 5 (5=80-100%) | 5 (5=80-100%) | 5 (5=80-100%) | 3 (3=40-59%) | 5 (5=80-100%) | 2 (2=20-39%) |  |  |  |  |  |  |  |  |  |  |
| CCn1nnnc1NC(=O)c1ccc(OC(F)(F)F)c(NC(=O)c2ccccn2)c1Cl [Compound 1.128] | 5 (5=80-100%) | 5 (5=80-100%) | 5 (5=80-100%) | 5 (5=80-100%) | 5 (5=80-100%) | 3 (3=40-59%) | 5 (5=80-100%) | 1 (1=0-19%) | 4 (4=60-79%) | 1 (1=0-19%) |  |  |  |  |  |  |  |  |  |  |
| CCCn1nnnc1NC(=O)c1ccc(OC(F)(F)F)c(NC(C)=O)c1Cl [Compound 1.129] | 5 (5=80-100%) | 5 (5=80-100%) | 5 (5=80-100%) | 5 (5=80-100%) | 5 (5=80-100%) | 4 (4=60-79%) | 5 (5=80-100%) | 1 (1=0-19%) | 5 (5=80-100%) | 2 (2=20-39%) |  |  |  |  |  |  |  |  |  |  |
| COCC(=O)Nc1c(OC(F)(F)F)ccc(C(=O)Nc2nnnn2C)c1Cl [Compound 1.130] | 5 (5=80-100%) | 5 (5=80-100%) | 5 (5=80-100%) | 5 (5=80-100%) | 4 (4=60-79%) | 2 (2=20-39%) | 5 (5=80-100%) | 1 (1=0-19%) | 4 (4=60-79%) | 1 (1=0-19%) |  |  |  |  |  |  |  |  |  |  |
| CCn1nnnc1NC(=O)c1ccc(OC(F)F)c(NC(=O)CC2CC2)c1Cl [Compound 1.131] | 5 (5=80-100%) | 5 (5=80-100%) | 4 (4=60-79%) | 5 (5=80-100%) | 5 (5=80-100%) | 3 (3=40-59%) | 5 (5=80-100%) | 1 (1=0-19%) | 5 (5=80-100%) | 1 (1=0-19%) |  |  |  |  |  |  |  |  |  |  |
| CCCn1nnnc1NC(=O)c1ccc(OC(F)(F)F)c(NC(=O)c2ccccn2)c1Cl [Compound 1.132] | 5 (5=80-100%) | 5 (5=80-100%) | 5 (5=80-100%) | 5 (5=80-100%) | 5 (5=80-100%) | 3 (3=40-59%) | 5 (5=80-100%) | 1 (1=0-19%) | 4 (4=60-79%) | 4 (4=60-79%) |  |  |  |  |  |  |  |  |  |  |
| Cc1nnc(NC(=O)c2ccc(OC(F)(F)F)c(N(C)C)c2Cl)o1 [Compound 2.001, 2-chloro-3-(dimethylamino)-N-(5-methyl-1,3,4-oxadiazol-2-yl)-4-(trifluoromethoxy)benzamide] | 5 (5=80-100%) | 5 (5=80-100%) | 5 (5=80-100%) | 4 (4=60-79%) | 5 (5=80-100%) | 5 (5=80-100%) | 5 (5=80-100%) | 5 (5=80-100%) | 4 (4=60-79%) | 3 (3=40-59%) |  |  |  |  |  |  |  |  |  |  |
| CC(=O)Nc1c(OC(F)(F)F)ccc(C(=O)Nc2nnc(C)o2)c1Cl [Compound 2.002] | 5 (5=80-100%) | 5 (5=80-100%) | 5 (5=80-100%) | 5 (5=80-100%) | 5 (5=80-100%) | 1 (1=0-19%) | 1 (1=0-19%) | 1 (1=0-19%) | 3 (3=40-59%) | 1 (1=0-19%) |  |  |  |  |  |  |  |  |  |  |
| CC(=O)N(C)c1c(OC(F)(F)F)ccc(C(=O)Nc2nnc(C)o2)c1Cl [Compound 2.003] | 5 (5=80-100%) | 5 (5=80-100%) | 5 (5=80-100%) | 5 (5=80-100%) | 5 (5=80-100%) | 5 (5=80-100%) | 5 (5=80-100%) | 5 (5=80-100%) | 5 (5=80-100%) | 4 (4=60-79%) |  |  |  |  |  |  |  |  |  |  |
